Experimental data from PubChem BioAssay AID1845228.

details: pampa; 60.0 min; 50.0 µM

Question: For CC=CC1=C(C(=O)O)N2C(=O)[C@@H](NC(=O)[C@H](N)c3ccc(O)cc3)[C@H]2SC1, which Papp is on record?
Answer: 282 ×10⁻⁶ cm/s

Question: For Nc1ccc(-c2ccc3ncc4ccc(=O)n(-c5cccc(C(F)(F)F)c5)c4c3c2)cn1, which Papp is on record?
Answer: > 300 ×10⁻⁶ cm/s

Question: Which Papp does the source give for C1CCC(COCCc2noc(C3CNC3)n2)C1 here?
Answer: < 1 ×10⁻⁶ cm/s

Question: For CC(C)c1cc(-c2n[nH]c(=O)n2-c2ccc3c(ccn3C)c2)c(O)cc1O, which Papp is on record?
Answer: 79.5 ×10⁻⁶ cm/s

Question: Which Papp does the source give for O=C(NC1CCC(O)CC1)c1ccc(-c2ncc3cnc(-c4cccc(F)c4)cn23)cc1 (centres undefined) here?
Answer: 59 ×10⁻⁶ cm/s

Question: For OCCCCC#Cc1cncc(OC[C@@H]2CCN2)c1, which Papp is on record?
Answer: < 1 ×10⁻⁶ cm/s

Question: For Cc1ccccc1CN1CCn2c(nn(CC3COc4ccccc4O3)c2=O)C1=O (centres undefined), which Papp is on record?
Answer: 57.7 ×10⁻⁶ cm/s

Question: Which Papp does the source give for N[C@@H](COC(c1cccc(F)c1)c1ccccc1OCc1ccccc1)C(=O)O (some centres undefined) here?
Answer: < 1 ×10⁻⁶ cm/s

Question: For CN1CCCC(=C(c2cccs2)c2cccs2)C1, which Papp is on record?
Answer: < 1 ×10⁻⁶ cm/s

Question: With CN1N=C2CCN(C(=O)[C@H](COCc3ccccc3)NC(=O)C(C)(C)N)C[C@]2(Cc2ccccc2)C1=O as the compound, how does the Papp read?
Answer: 15 ×10⁻⁶ cm/s

Question: For Nc1ncnc2c1ncn2CCNCCCCCO, which Papp is on record?
Answer: < 1 ×10⁻⁶ cm/s

Question: For O=C1Nc2ccc(C(=O)c3ccco3)cc2/C1=C/c1cc(Cl)c(O)c(Cl)c1, which Papp is on record?
Answer: 38 ×10⁻⁶ cm/s

Question: Which Papp does the source give for O=C(/C=C\n1cnc(-c2cc(C(F)(F)F)cc(C(F)(F)F)c2)n1)N1CC(F)(F)C1 here?
Answer: 121 ×10⁻⁶ cm/s

Question: With Cn1nnnc1Sc1ncnc2scc(-c3ccc(Br)cc3)c12 as the compound, how does the Papp read?
Answer: 159 ×10⁻⁶ cm/s

Question: For CCNC(=O)c1cc2c(-c3cc(OCCN4CCCC4)c(Cl)cc3Cl)nc(N)nc2s1, which Papp is on record?
Answer: 123 ×10⁻⁶ cm/s

Question: For CC(C)N(CCCNC(=O)Nc1ccc(C(C)(C)C)cc1)C[C@H]1O[C@@H](n2cc(Br)c3c(N)ncnc32)[C@H](O)[C@@H]1O, which Papp is on record?
Answer: 6.2 ×10⁻⁶ cm/s

Question: Which Papp does the source give for COCCn1cnc2c(c(-c3ccccc3)c(-c3ccccc3)n2CCc2ccccc2)c1=N here?
Answer: 116 ×10⁻⁶ cm/s

Question: Which Papp does the source give for CCC(=O)N1CCN(c2ccc(-n3c(=O)ccc4cnc5ccc(-c6cnc7ccccc7c6)cc5c43)cc2C(F)(F)F)CC1 here?
Answer: 158 ×10⁻⁶ cm/s

Question: For COc1ccccc1NC(=O)C1=C(C)Nc2c(C(=O)Nc3cccc(C)c3)cnn2C1c1ccccc1Cl (centres undefined), which Papp is on record?
Answer: 160 ×10⁻⁶ cm/s

Question: For CC(Cc1ccc2c(c1)OCO2)NCC(O)c1ccc(O)c(O)c1 (centres undefined), which Papp is on record?
Answer: 6 ×10⁻⁶ cm/s

Question: For CC[C@@]1(O)C(=O)OCc2c1cc1n(c2=O)Cc2cc3c(CN(C)C)c(O)ccc3nc2-1, which Papp is on record?
Answer: 1.37 ×10⁻⁶ cm/s

Question: For FC(F)(F)c1ccccc1-c1cc(C(F)(F)F)c2nc(C3=NOC4(CCCCC4)C3)[nH]c2c1, which Papp is on record?
Answer: 8 ×10⁻⁶ cm/s

Question: For CCN(CC)CCCC(C)Nc1ccnc2cc(Cl)ccc12 (centres undefined), which Papp is on record?
Answer: 8 ×10⁻⁶ cm/s

Question: With C[n+]1c2cc(N)ccc2cc2ccc(N)cc21 as the compound, how does the Papp read?
Answer: < 1 ×10⁻⁶ cm/s

Question: With COc1cc(OC)c(OC)cc1CN1CCc2nc(N3CCN(c4ccccc4F)CC3)ncc2C1 as the compound, how does the Papp read?
Answer: > 300 ×10⁻⁶ cm/s

Question: With O=C(Nc1cccnc1)c1cccs1 as the compound, how does the Papp read?
Answer: 10 ×10⁻⁶ cm/s

Question: Which Papp does the source give for CC(=O)OC(C)OC(=O)C(C)c1ccc(-c2ccccc2)c(F)c1 (centres undefined) here?
Answer: > 300 ×10⁻⁶ cm/s

Question: For CCO[C@@H]1OC(=O)C[C@@H]1NC(=O)[C@@H]1CCCN1C(=O)[C@@H](NC(=O)c1ccc(N)c(Cl)c1)C(C)(C)C, which Papp is on record?
Answer: 4 ×10⁻⁶ cm/s

Question: Which Papp does the source give for N=c1c2c(-c3ccccc3)cn(Cc3ccccc3)c2ncn1[C@@H]1CCCC[C@H]1N here?
Answer: 101 ×10⁻⁶ cm/s

Question: Which Papp does the source give for N=c1c2c(-c3ccccc3)c(-c3ccccc3)n(CCc3ccccc3)c2ncn1CC1CCCO1 (centres undefined) here?
Answer: 269 ×10⁻⁶ cm/s

Question: Which Papp does the source give for N[C@@H](Cc1ccc(N(CCCl)CCCl)cc1)C(=O)O here?
Answer: 131 ×10⁻⁶ cm/s

Question: With COc1cc(/C=C/C(=O)NCCn2c(C(F)(F)F)cc3ccccc32)cc(OC)c1OC as the compound, how does the Papp read?
Answer: > 300 ×10⁻⁶ cm/s

Question: With CO/S(=N\S(=O)(=O)c1ccc(Cl)cc1)c1ccc([N+](=O)[O-])cc1 (centres undefined) as the compound, how does the Papp read?
Answer: 4 ×10⁻⁶ cm/s

Question: For CN(C(=O)/C=C/c1ccoc1)[C@@H]1CC[C@@]2(O)[C@H]3Cc4ccc(O)c5c4[C@@]2(CCN3CC2CC2)[C@H]1O5, which Papp is on record?
Answer: 13 ×10⁻⁶ cm/s

Question: With O=C(C[C@@H]1NCCC[C@H]1O)Cn1cnc2cc(Br)c(Cl)cc2c1=O as the compound, how does the Papp read?
Answer: 43 ×10⁻⁶ cm/s

Question: For CC(=O)Nc1c2sscc-2n(C)c1=O, which Papp is on record?
Answer: 16 ×10⁻⁶ cm/s

Question: With CC[C@@H]1C[C@]1(NC(=O)[C@@H]1C[C@@H]2CN1C(=O)[C@H](C(C)(C)C)NC(=O)OCC(C)(C)CCCCc1cccc3c1CN(C3)C(=O)O2)C(=O)NS(=O)(=O)C1CC1 as the compound, how does the Papp read?
Answer: 10 ×10⁻⁶ cm/s

Question: With CC(NC(CCc1ccccc1)C(=O)O)C(=O)N1C(=O)N(C)CC1C(=O)O (centres undefined) as the compound, how does the Papp read?
Answer: < 1 ×10⁻⁶ cm/s

Question: For N=c1c2c(-c3ccccc3)cn(Cc3ccccc3)c2ncn1CCO, which Papp is on record?
Answer: 113 ×10⁻⁶ cm/s

Question: With CC1(C)S[C@@H]2[C@H](NC(=O)COc3ccccc3)C(=O)N2[C@H]1C(=O)O as the compound, how does the Papp read?
Answer: 6 ×10⁻⁶ cm/s

Question: For COc1ccc(Cn2c(-c3ccccc3)c(-c3ccccc3)c3c(=N)n(CC4CCCO4)cnc32)cc1 (centres undefined), which Papp is on record?
Answer: 297 ×10⁻⁶ cm/s

Question: With COc1ccc(CCn2cnc3c(c(-c4ccccc4)c(-c4ccccc4)n3Cc3ccccc3)c2=N)cc1OC as the compound, how does the Papp read?
Answer: 287 ×10⁻⁶ cm/s

Question: Which Papp does the source give for CC(=O)c1cc2c(s1)c1cnn(Cc3ccccc3F)c(=O)c1n2C here?
Answer: > 300 ×10⁻⁶ cm/s

Question: For N=c1c2c(-c3ccccc3)cn(Cc3ccc(Br)cc3)c2ncn1CCCN1CCN(c2ccccc2)CC1, which Papp is on record?
Answer: 151 ×10⁻⁶ cm/s

Question: With CCn1c(C(=O)N(C2CC2)C2CC2)cc2c3c(ncn3C)c(Nc3cc(C)n(C)n3)nc21 as the compound, how does the Papp read?
Answer: 31 ×10⁻⁶ cm/s

Question: Which Papp does the source give for COC(=O)[C@]12CCC(C)(C)C[C@@H]1[C@@H]1C(=O)C=C3[C@@]4(C)C=C(C#N)C(=O)C(C)(C)[C@@H]4CC[C@@]3(C)[C@]1(C)CC2 here?
Answer: 8 ×10⁻⁶ cm/s

Question: Which Papp does the source give for CCOC(CCCn1cnc2c(c(-c3ccccc3)c(-c3ccccc3)n2CCc2ccccc2)c1=N)OCC here?
Answer: < 1 ×10⁻⁶ cm/s

Question: With O=C(O)c1cc2ccccc2c(Cc2c(O)c(C(=O)O)cc3ccccc23)c1O as the compound, how does the Papp read?
Answer: 3 ×10⁻⁶ cm/s

Question: Which Papp does the source give for Cc1cc(C)nc(NC(=S)N2CCN(c3ccc(C(F)(F)F)cn3)CC2)c1 here?
Answer: 137 ×10⁻⁶ cm/s

Question: With COc1ccc(-n2nc(C(F)F)cc2-c2ccc(S(C)=O)cc2)cc1 (centres undefined) as the compound, how does the Papp read?
Answer: 115 ×10⁻⁶ cm/s

Question: For CO/N=C(\C(=O)N[C@@H]1C(=O)N2C(C(=O)OCOC(=O)C(C)(C)C)=C(/C=C\c3scnc3C)CS[C@H]12)c1csc(N)n1, which Papp is on record?
Answer: 11 ×10⁻⁶ cm/s

Question: For O=C(O)[C@H]1O[C@@H](Oc2cc3oc(-c4ccc(O)cc4)cc(=O)c3c(O)c2O)[C@H](O)[C@@H](O)[C@@H]1O, which Papp is on record?
Answer: < 1 ×10⁻⁶ cm/s

Question: Which Papp does the source give for O=c1c2c(c1=O)N(CCP(=O)(O)O)CCCN2 here?
Answer: < 1 ×10⁻⁶ cm/s

Question: For COC(Cn1cnc2c(c(-c3ccccc3)c(-c3ccccc3)n2Cc2ccccc2)c1=N)OC, which Papp is on record?
Answer: 189 ×10⁻⁶ cm/s

Question: For CCOc1ccc(C2C(C(=O)Nc3ccccc3OC)=C(C)Nc3c(C(=O)Nc4cccc(C)c4)cnn32)cc1 (centres undefined), which Papp is on record?
Answer: 45 ×10⁻⁶ cm/s

Question: For COc1cc(Cc2cnc(N)nc2N)c(C(C)C)cc1OC, which Papp is on record?
Answer: 48 ×10⁻⁶ cm/s

Question: Which Papp does the source give for O=C(NCCCN1CCCC1=O)c1ccc(-c2ncc3cnc(-c4ccccc4)cn23)cc1 here?
Answer: 31 ×10⁻⁶ cm/s

Question: Which Papp does the source give for NCCCNCCCCNC(=O)C(O)NC(=O)CCCCCCN=C(N)N (centres undefined) here?
Answer: 38 ×10⁻⁶ cm/s

Question: With CC(C)(C)C(=O)OCOC(=O)C1N2C(=O)CC2S(=O)(=O)C1(C)C (centres undefined) as the compound, how does the Papp read?
Answer: 37 ×10⁻⁶ cm/s

Question: For O=C1CCCC2=C1C(c1[nH]ncc1Cl)N=C(Nc1nc3ccccc3o1)N2 (centres undefined), which Papp is on record?
Answer: 275 ×10⁻⁶ cm/s

Question: With CNC(=O)c1cc(Oc2ccc(NC(=O)Nc3cc(C(C)(C)C)nn3-c3ccc4ncccc4c3)c(F)c2)ccn1 as the compound, how does the Papp read?
Answer: 210 ×10⁻⁶ cm/s

Question: Which Papp does the source give for O=C(N[C@H]1CCS[C@H]2CCC[C@@H](C(=O)O)N2C1=O)[C@@H](S)Cc1ccccc1 here?
Answer: < 1 ×10⁻⁶ cm/s

Question: Which Papp does the source give for CC(C)CNc1ccnc(NCc2csc(-c3ccccc3)n2)n1 here?
Answer: 228 ×10⁻⁶ cm/s

Question: Which Papp does the source give for CNc1ncc(-c2ccc3c(=O)c(C(=O)O)cn(C4CC4)c3c2C)cc1C here?
Answer: 3 ×10⁻⁶ cm/s

Question: With Nc1c2ccccc2nc2ccccc12 as the compound, how does the Papp read?
Answer: 36 ×10⁻⁶ cm/s

Question: For COc1cc([C@@H]2c3cc4c(cc3[C@@H](O[C@@H]3O[C@@H]5CO[C@@H](C)O[C@@H]5[C@H](O)[C@@H]3O)[C@H]3COC(=O)[C@H]23)OCO4)cc(OC)c1O, which Papp is on record?
Answer: 3 ×10⁻⁶ cm/s

Question: Which Papp does the source give for CC(C)(C)c1ccc2c(c1)CC[C@H]2NC(=O)Nc1cccc2[nH]ncc12 here?
Answer: < 1 ×10⁻⁶ cm/s

Question: For C=CC1=C(C(=O)O)N2C(=O)[C@@H](NC(=O)/C(=N\O)c3csc(N)n3)[C@H]2SC1, which Papp is on record?
Answer: < 1 ×10⁻⁶ cm/s

Question: For CCC[C@@H](NC(=O)N1C(=O)C(CC)(CC)[C@@H]1Oc1ccc(C(=O)N2CCN(C)CC2)cc1)c1ccc2c(c1)OCO2, which Papp is on record?
Answer: > 300 ×10⁻⁶ cm/s
